Tested on: 699152-130-R-J1-PDC complex spheroid viability
Experiment: Anticancer human tumor 699152-130-R-J1-PDC patient-derived pancreatic carcinoma cell line growth inhibition [POLQ]
Settings: for IC50: curve of first compound; for viability, T/C: stronger effect = lower value; active means viability on the fitted dose curve at most 10% of control; inactive means the rest
How it was run: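 Three-cell-type spheroids modelling solid tumor plus stroma served as the readout system; POL inhibitors were tested individually and in combination, concentration ranges set by clinical Cmax where known.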

[1] = second compound 0.0316 µM, first compound 0.0316 µM
[2] = second compound 0.0316 µM, first compound 0.1 µM
[3] = second compound 0.0316 µM, first compound 0.316 µM
[4] = second compound 0.0316 µM, first compound 1 µM
[5] = second compound 0.0316 µM, first compound 3.16 µM
[6] = second compound 0.0316 µM, first compound 10 µM
[7] = second compound 0.1 µM, first compound 0.0316 µM
[8] = second compound 0.1 µM, first compound 0.1 µM
[9] = second compound 0.1 µM, first compound 0.316 µM
[10] = second compound 0.1 µM, first compound 1 µM
[11] = second compound 0.1 µM, first compound 3.16 µM
[12] = second compound 0.1 µM, first compound 10 µM
[13] = second compound 0.316 µM, first compound 0.0316 µM
[14] = second compound 0.316 µM, first compound 0.1 µM
[15] = second compound 0.316 µM, first compound 0.316 µM
[16] = second compound 0.316 µM, first compound 1 µM
[17] = second compound 0.316 µM, first compound 3.16 µM
[18] = second compound 0.316 µM, first compound 10 µM
[19] = second compound 1 µM, first compound 0.0316 µM
[20] = second compound 1 µM, first compound 0.1 µM
[21] = second compound 1 µM, first compound 0.316 µM
[22] = second compound 1 µM, first compound 1 µM
[23] = second compound 1 µM, first compound 3.16 µM
[24] = second compound 1 µM, first compound 10 µM
[25] = second compound 3.16 µM, first compound 0.0316 µM
[26] = second compound 3.16 µM, first compound 0.1 µM
[27] = second compound 3.16 µM, first compound 0.316 µM
[28] = second compound 3.16 µM, first compound 1 µM
[29] = second compound 3.16 µM, first compound 3.16 µM
[30] = second compound 3.16 µM, first compound 10 µM
[31] = second compound 10 µM, first compound 0.0316 µM
[32] = second compound 10 µM, first compound 0.1 µM
[33] = second compound 10 µM, first compound 0.316 µM
[34] = second compound 10 µM, first compound 1 µM
[35] = second compound 10 µM, first compound 3.16 µM
[36] = second compound 10 µM, first compound 10 µM
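Further: spheroids exposed to agents for 7 days before viability reading.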
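Wherever viability, T/C is given: percent of DMSO vehicle control viability so 100% = vehicle and 0% = no viable signal.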

C=CC(=O)N1CCN(c2nc(=O)n(-c3c(C)ccnc3C(C)C)c3nc(-c4c(O)cccc4F)c(F)cc23)C(C)C1 (stereo unspecified) + Nc1ccc(C#CCN(C(=O)Cc2ncc(C(F)(F)F)cc2C(F)(F)F)c2ccc(F)cc2)nn1
> 10 µM: IC50 (second compound 0.0316 µM) | IC50 (second compound 0.1 µM) | IC50 (second compound 0.316 µM) | IC50 (second compound 1 µM) | IC50 (second compound 3.16 µM) | IC50 (second compound 10 µM)
inactive: viability, T/C [1] 99% | viability, T/C [2] 91.6% | viability, T/C [3] 102% | viability, T/C [4] 117% | viability, T/C [5] 115% | viability, T/C [6] 103% | viability, T/C [7] 92.8% | viability, T/C [8] 89.6% | viability, T/C [9] 106% | viability, T/C [10] 116% | viability, T/C [11] 123% | viability, T/C [12] 113% | viability, T/C [13] 102% | viability, T/C [14] 106% | viability, T/C [15] 98.8% | viability, T/C [16] 118% | viability, T/C [17] 119% | viability, T/C [18] 97.4% | viability, T/C [19] 104% | viability, T/C [20] 105% | viability, T/C [21] 103% | viability, T/C [22] 111% | viability, T/C [23] 124% | viability, T/C [24] 117% | viability, T/C [25] 103% | viability, T/C [26] 125% | viability, T/C [27] 102% | viability, T/C [28] 119% | viability, T/C [29] 114% | viability, T/C [30] 95.9% | viability, T/C [31] 110% | viability, T/C [32] 110% | viability, T/C [33] 122% | viability, T/C [34] 109% | viability, T/C [35] 125% | viability, T/C [36] 121%

CC(C)n1c(=O)n(C)c2cnc3cc(F)c(-c4ccc(OCCCN5CCCCC5)nc4)cc3c21 + Nc1ccc(C#CCN(C(=O)Cc2ncc(C(F)(F)F)cc2C(F)(F)F)c2ccc(F)cc2)nn1
inactive: viability, T/C [1] 88.5% | viability, T/C [2] 111% | viability, T/C [3] 93.5% | viability, T/C [4] 97.9% | viability, T/C [5] 104% | viability, T/C [6] 96.8% | viability, T/C [7] 118% | viability, T/C [8] 103% | viability, T/C [9] 106% | viability, T/C [10] 108% | viability, T/C [11] 101% | viability, T/C [12] 86.9% | viability, T/C [13] 98.1% | viability, T/C [14] 105% | viability, T/C [15] 103% | viability, T/C [16] 116% | viability, T/C [17] 104% | viability, T/C [18] 89.5% | viability, T/C [19] 109% | viability, T/C [20] 93.6% | viability, T/C [21] 103% | viability, T/C [22] 111% | viability, T/C [23] 106% | viability, T/C [24] 89% | viability, T/C [25] 116% | viability, T/C [26] 98.2% | viability, T/C [27] 112% | viability, T/C [28] 118% | viability, T/C [29] 108% | viability, T/C [30] 86.2% | viability, T/C [31] 116% | viability, T/C [32] 119% | viability, T/C [33] 121% | viability, T/C [34] 113% | viability, T/C [35] 112% | viability, T/C [36] 91.9%
> 10 µM: IC50 (second compound 0.0316 µM) | IC50 (second compound 0.1 µM) | IC50 (second compound 0.316 µM) | IC50 (second compound 1 µM) | IC50 (second compound 3.16 µM) | IC50 (second compound 10 µM)

CC1COCCN1c1cc(C2(S(C)(=N)=O)CC2)nc(-c2ccnc3[nH]ccc23)n1 (stereo unspecified) + Nc1ccc(C#CCN(C(=O)Cc2ncc(C(F)(F)F)cc2C(F)(F)F)c2ccc(F)cc2)nn1
inactive: viability, T/C [1] 109% | viability, T/C [2] 100% | viability, T/C [3] 89.4% | viability, T/C [4] 88.7% | viability, T/C [5] 75.8% | viability, T/C [6] 68.9% | viability, T/C [7] 106% | viability, T/C [8] 92.7% | viability, T/C [9] 96.6% | viability, T/C [10] 97.6% | viability, T/C [11] 76.2% | viability, T/C [12] 62.3% | viability, T/C [13] 104% | viability, T/C [14] 113% | viability, T/C [15] 110% | viability, T/C [16] 94.4% | viability, T/C [17] 80.1% | viability, T/C [18] 68.9% | viability, T/C [19] 114% | viability, T/C [20] 96.1% | viability, T/C [21] 99.9% | viability, T/C [22] 86% | viability, T/C [23] 74.7% | viability, T/C [24] 66.1% | viability, T/C [25] 108% | viability, T/C [26] 93.4% | viability, T/C [27] 123% | viability, T/C [28] 113% | viability, T/C [29] 88.1% | viability, T/C [30] 76.6% | viability, T/C [31] 110% | viability, T/C [32] 105% | viability, T/C [33] 106% | viability, T/C [34] 95.5% | viability, T/C [35] 82.6% | viability, T/C [36] 77.2%
> 10 µM: IC50 (second compound 0.0316 µM) | IC50 (second compound 0.1 µM) | IC50 (second compound 0.316 µM) | IC50 (second compound 1 µM) | IC50 (second compound 3.16 µM) | IC50 (second compound 10 µM)

From PubChem BioAssay AID1963835 (Molecular Pharmacology Branch, DTP, NCI, 2024)
